# Laboratory results reported in PubChem BioAssay (NCI).
#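 Grown in 96-well plates, cells were treated for 48 hours with each compound at five concentrations. Insufficient inhibition: endpoint recorded as highest concentration tested. TGI: concentration producing complete growth inhibition.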
# Key:
# Assay in all cases: NCI tumour cell line growth inhibition, 48 h
# NCI-H460 lung = system: NCI-H460 lung
# COLO 205 colon = system: COLO 205 colon
# RXF 393 renal = system: RXF 393 renal
# LOX IMVI melanoma = system: LOX IMVI melanoma
# HCT-116 colon = system: HCT-116 colon
# A549 NSCLC = system: A549 NSCLC
# NCI-H226 lung = system: NCI-H226 lung
# HCC-2998 colon = system: HCC-2998 colon
# UACC-62 melanoma = system: UACC-62 melanoma
# U251 CNS = system: U251 CNS
# OVCAR-8 ovarian = system: OVCAR-8 ovarian
# SNB-75 CNS = system: SNB-75 CNS
# SNB-78 CNS = system: SNB-78 CNS
# NCI/ADR-RES ovarian = system: NCI/ADR-RES ovarian
# DLD-1 colon = system: DLD-1 colon
# HL-60(TB) leukemia = system: HL-60(TB) leukemia
# K-562 leukemia = system: K-562 leukemia
# XF 498 CNS = system: XF 498 CNS
# SK-OV-3 ovarian = system: SK-OV-3 ovarian
# A498 renal = system: A498 renal
# SF-295 CNS = system: SF-295 CNS
# KM20L2 colon = system: KM20L2 colon
# CAKI-1 renal = system: CAKI-1 renal
# SK-MEL-2 melanoma = system: SK-MEL-2 melanoma
# SK-MEL-28 melanoma = system: SK-MEL-28 melanoma
# HOP-92 NSCLC = system: HOP-92 NSCLC
# OVCAR-4 ovarian = system: OVCAR-4 ovarian
# NCI-H23 lung = system: NCI-H23 lung
# OVCAR-5 ovarian = system: OVCAR-5 ovarian
# M19-MEL melanoma = system: M19-MEL melanoma
# HOP-18 NSCLC = system: HOP-18 NSCLC
# SN12C renal = system: SN12C renal
# MOLT-4 leukemia = system: MOLT-4 leukemia
# RPMI-8226 leukemia = system: RPMI-8226 leukemia
# SF-268 CNS = system: SF-268 CNS
# DMS 273 small cell lung = system: DMS 273 small cell lung
# HOP-62 NSCLC = system: HOP-62 NSCLC
# EKVX NSCLC = system: EKVX NSCLC
# HT29 colon = system: HT29 colon
# UACC-257 melanoma = system: UACC-257 melanoma
# P388/ADR leukemia = system: P388/ADR leukemia
# HCT-15 colon = system: HCT-15 colon
# KM12 colon = system: KM12 colon
# OVCAR-3 ovarian = system: OVCAR-3 ovarian
# DMS 114 small cell lung = system: DMS 114 small cell lung
# SW-620 colon = system: SW-620 colon
# IGROV1 ovarian = system: IGROV1 ovarian
# CCRF-CEM leukemia = system: CCRF-CEM leukemia
# UO-31 renal = system: UO-31 renal
smiles,measurement,setting,value
C/C=C(\C)C(=O)OC1C2C(C)=CC(=O)C(O)C2(C)C2C3(O)OCC24C1OC(=O)C(OC(C)=O)C4C(C)C3O (centres undefined),TGI,NCI-H460 lung,38 nM
same,TGI,COLO 205 colon,229 nM
same,TGI,RXF 393 renal,63 nM
same,TGI,LOX IMVI melanoma,375 nM
same,TGI,HCT-116 colon,875 nM
same,TGI,A549 NSCLC,648 nM
same,TGI,NCI-H226 lung,42.7 nM
same,TGI,HCC-2998 colon,92.8 nM
same,TGI,UACC-62 melanoma,55.5 nM
same,TGI,U251 CNS,40.7 nM
same,TGI,OVCAR-8 ovarian,105 nM
same,TGI,SNB-75 CNS,55 nM
same,TGI,SNB-78 CNS,141 nM
same,TGI,NCI/ADR-RES ovarian,31200 nM
same,TGI,DLD-1 colon,78 nM
same,TGI,HL-60(TB) leukemia,808 nM
same,TGI,K-562 leukemia,375 nM
same,TGI,XF 498 CNS,57.7 nM
same,TGI,SK-OV-3 ovarian,1120 nM
same,TGI,A498 renal,147 nM
same,TGI,SF-295 CNS,95.9 nM
same,TGI,KM20L2 colon,795 nM
same,TGI,CAKI-1 renal,674 nM
same,TGI,SK-MEL-2 melanoma,73 nM
same,TGI,SK-MEL-28 melanoma,39.7 nM
same,TGI,HOP-92 NSCLC,50.8 nM
same,TGI,OVCAR-4 ovarian,413 nM
same,TGI,NCI-H23 lung,266 nM
same,TGI,OVCAR-5 ovarian,1530 nM
same,TGI,M19-MEL melanoma,45.5 nM
same,TGI,HOP-18 NSCLC,792 nM
same,TGI,SN12C renal,468 nM
same,TGI,MOLT-4 leukemia,750 nM
same,TGI,RPMI-8226 leukemia,37.7 nM
same,TGI,SF-268 CNS,88.7 nM
same,TGI,DMS 273 small cell lung,38.2 nM
same,TGI,HOP-62 NSCLC,41.5 nM
same,TGI,EKVX NSCLC,103 nM
same,TGI,HT29 colon,382 nM
same,TGI,UACC-257 melanoma,49.6 nM
same,TGI,P388/ADR leukemia,924 nM
same,TGI,HCT-15 colon,328 nM
same,TGI,KM12 colon,37.5 nM
same,TGI,OVCAR-3 ovarian,49.6 nM
same,TGI,DMS 114 small cell lung,40.9 nM
same,TGI,SW-620 colon,525 nM
same,TGI,IGROV1 ovarian,160 nM
same,TGI,CCRF-CEM leukemia,244 nM
same,TGI,UO-31 renal,887 nM
